Experimental data as given in patent US20230089247A1, “NOVEL COMPOUNDS SUITABLE FOR THE TREATMENT OF DYSLIPIDEMIA” (ZYDUS LIFESCIENCES LIMITED, priority 2019, published 2023).

Target: PCSK9 (Homo sapiens, UniProt Q8NBP7)
Assay: BODIPY-LDL uptake assay in HepG2 cells
Type: cell-based
Conditions: 5 μg/ml PCSK9, BODIPY-LDL
Procedure: BODIPY-LDL Uptake Assay in HepG2 Cells.
An established assay for PCSK9 inhibition features uptake of fluorescently labeled LDL nanoparticles (BODIPY-LDL) by hepatocytes and uptake of the BODIPY-containing particles is maximized in the absence of PCSK9.
In the LDL uptake assay, HepG2 cells were seeded at a density of 6×10^4 cells/well in a 96-well plate. After 24 h, the test compounds at various concentrations were pre-incubated with 5 μg/ml PCSK9 in 0.2% DMSO for 60 min prior to the addition on to the cells. After 16 h the medium was removed and 1 μg/ml BODIPY-LDL (Invitrogen) in serum free media was added and incubated for 5 h. Then the cells were washed twice with 0.25% BSA in PBS. Then the fluorescence of the cells in PBS was measured using TECAN multimode reader (Excitation: 485 nm and Emission: 520 nm). The readings were taken in triplicate and the final values were normalized with the protein concentration from respective wells. The wells without test compound containing external PCSK9 is considered as zero uptake and the one without PCSK9 was considered as 100% uptake. The percentage increase in LDL uptake for the test compounds were calculated using these values.

Sequence of PCSK9 (Q8NBP7 153-692): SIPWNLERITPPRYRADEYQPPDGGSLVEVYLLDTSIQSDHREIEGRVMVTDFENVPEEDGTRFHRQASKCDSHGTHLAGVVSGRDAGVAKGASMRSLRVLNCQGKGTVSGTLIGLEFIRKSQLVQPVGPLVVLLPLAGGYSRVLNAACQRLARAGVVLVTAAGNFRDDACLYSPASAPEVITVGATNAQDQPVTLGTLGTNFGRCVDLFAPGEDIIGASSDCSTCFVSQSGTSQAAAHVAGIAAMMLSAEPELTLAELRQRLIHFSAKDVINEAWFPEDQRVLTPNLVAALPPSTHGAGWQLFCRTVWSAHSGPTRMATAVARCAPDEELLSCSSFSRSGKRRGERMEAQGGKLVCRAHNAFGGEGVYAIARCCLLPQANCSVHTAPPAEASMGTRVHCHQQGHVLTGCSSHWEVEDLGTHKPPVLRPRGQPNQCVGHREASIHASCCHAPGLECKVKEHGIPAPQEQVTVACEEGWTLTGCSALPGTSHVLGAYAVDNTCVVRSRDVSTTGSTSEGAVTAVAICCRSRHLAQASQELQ

## COC1(c2cccc(C(=O)N3CC4=C(C3)CN(c3ccc(C(F)(F)F)cc3)C4)c2)COC1 [Example 97, (3-(3-methoxyoxetan-3-yl)phenyl)(5-(4-(trifluoromethyl)phenyl)-3,4,5,6-tetrahydropyrrolo[3,4-c]pyrrol-2(1H)-yl)methanone]
1 μM test compound
  % increase in LDL Uptake: 0%
10 μM test compound
  % increase in LDL Uptake: 0%
30 μM test compound
  % increase in LDL Uptake: 24%

## O=S(=O)(c1ccc(C2(O)COC2)cc1)N1CC2CN(c3ccc(C(F)(F)F)cc3)CC2C1 (stereo not drawn) [Example 98, 3-(4-((5-(4-(trifluoromethyl)phenyl)hexahydropyrrolo[3,4-c]pyrrol-2(1H)-yl)sulfonyl)phenyl)oxetan-3-ol]
1 μM test compound
  % increase in LDL Uptake: 0%
10 μM test compound
  % increase in LDL Uptake: 124%
30 μM test compound
  % increase in LDL Uptake: 3%

## O=C(c1ccc(C2(O)COC2)cc1)N1CCC2(CC1)CCN(c1ccc(C(F)(F)F)cc1)CC2 [Example 99, (4-(3-hydroxyoxetan-3-yl)phenyl)(9-(4-(trifluoromethyl)phenyl)-3,9-diazaspiro[5.5]undecan-3-yl)methanone]
1 μM test compound
  % increase in LDL Uptake: 50%
10 μM test compound
  % increase in LDL Uptake: 0%
30 μM test compound
  % increase in LDL Uptake: 0%

## O=C(c1cccc(C2(O)COC2)c1)N1CCC2(CC1)CCN(c1ccc(C(F)(F)F)cc1)CC2 [Example 100, (3-(3-hydroxyoxetan-3-yl)phenyl)(9-(4-(trifluoromethyl)phenyl)-3,9-diazaspiro[5.5]undecan-3-yl)methanone]
1 μM test compound
  % increase in LDL Uptake: 29%
10 μM test compound
  % increase in LDL Uptake: 0%
30 μM test compound
  % increase in LDL Uptake: 0%

## O=C(c1ccc(C2(O)COC2)cc1)N1CCC(c2ccc(C(F)(F)F)cc2)C1 (stereo not drawn) [Example 102, (4-(3-hydroxyoxetan-3-yl)phenyl)(3-(4-(trifluoromethyl)phenyl)pyrrolidin-1-yl)methanone]
1 μM test compound
  % increase in LDL Uptake: 4%
10 μM test compound
  % increase in LDL Uptake: 31%
30 μM test compound
  % increase in LDL Uptake: 25%

## CCOC1(c2ccc(C(=O)N3CC4=C(C3)CN(c3ccc(C(F)(F)F)cc3)C4)cc2)COC1 [Example 104, (4-(3-ethoxyoxetan-3-yl)phenyl)(5-(4-(trifluoromethyl)phenyl)-3,4,5,6-tetrahydropyrrolo[3,4-c]pyrrol-2(1H)-yl)methanone]
1 μM test compound
  % increase in LDL Uptake: 1%
10 μM test compound
  % increase in LDL Uptake: 30%
30 μM test compound
  % increase in LDL Uptake: 18%

## O=C(c1ccc(C2(O)COC2)cc1)N1CCc2cc(-c3ccc(C(F)(F)F)cc3)ccc21 [Example 107, (4-(3-hydroxyoxetan-3-yl)phenyl)(5-(4-(trifluoromethyl)phenyl)indolin-1-yl)methanone]
1 μM test compound
  % increase in LDL Uptake: 27%
10 μM test compound
  % increase in LDL Uptake: 0%
30 μM test compound
  % increase in LDL Uptake: 0%

## COC1(c2ccc(C(=O)N3CCC(c4ccc(C(F)(F)F)c(-n5cnc(C)c5)c4)CC3)cc2)COC1 [Example 108, (4-(3-methoxyoxetan-3-yl)phenyl)(4-(3-(4-methyl-1H-imidazol-1-yl)-4-(trifluoromethyl)phenyl)piperidin-1-yl)methanone]
1 μM test compound
  % increase in LDL Uptake: 9%
10 μM test compound
  % increase in LDL Uptake: 26%
30 μM test compound
  % increase in LDL Uptake: 32%

## CC(C)(CCCCCOC1(c2ccc(C(=O)N3CCC(c4ccc(C(F)(F)F)cc4)CC3)cc2)COC1)C(=O)O [Example 109, 2,2-dimethyl-7-((3-(4-(4-(4-(trifluoromethyl)phenyl)piperidine-1-carbonyl)phenyl)oxetan-3-yl)oxy)heptanoic acid]
1 μM test compound
  % increase in LDL Uptake: 5%
10 μM test compound
  % increase in LDL Uptake: 29%
30 μM test compound
  % increase in LDL Uptake: 31%
